Assay results taken from a melting point compilation (Tetko et al.; mined from patent text by program, amines drawn as free bases though some values may be those of a salt).

Structure (SMILES) | melting point [°C]
Nc1nc(C2CCN(C(=O)c3ccccc3)CC2)c2cc(Cl)ccc2n1 | 155 to 158
O=C(O)CC1CCCN(C(=O)c2ccc(NC(=O)COc3ccccc3)cc2)c2ccccc21 (stereo not drawn) | 102 to 106
COC(=O)C(C)(N)Cc1c[nH]c2ccc(OC)cc12 (racemic) | 131 to 132
COc1ccc2c(n1)CC(=O)N2CCCO | 121 to 122
CN1C(=O)N(c2ccccc2O)Cc2cnc(Nc3ccccc3)nc21 | 192
CCOC(=O)c1csnc1-c1ccc(Cl)cc1 | 70.5 to 71.5
COC(=O)NCCNC(=O)c1cc(C)c(C(c2cc(F)ccc2F)S(=O)(=O)c2ccc(F)cc2)cn1 (stereo not drawn) | 167 to 169
NS(=O)(=O)c1ccc2cc(O)c(O)cc2c1 | 218 to 228
Cc1oc2cc(O)cc(O)c2c(=O)c1-c1ccc(F)cc1 | 222 to 223
COc1cc2c(c(Cl)c1Cl)SC(C1CCCCC1)C2O (stereo not drawn) | 166 to 167
O=C(O)CCCCc1nn(-c2ccccc2)c2c1CCC2 | 98 to 99
Nc1cnc(-c2ccc(F)cc2)n(CC(=O)NC(Cc2ccccc2)C(=O)c2nc3ccccc3o2)c1=O (stereo not drawn) | 233 to 236
CC(C)(OCc1cc2cc(C(F)(F)F)ccc2n1S(=O)(=O)c1ccc2c(c1)OCO2)C(=O)O | 130 to 132
CCNC(=O)Nc1nc2nc(NCCN(CC)CC)ncc2cc1-c1c(Cl)cccc1Cl | 86.5 to 89.5
COc1ccc(-c2nc(S(=O)c3ccncc3)[nH]c2-c2ccc(OC)cc2)cc1 (stereo not drawn) | 170 to 171
CC(C)(C)c1cc2ccccc2[nH]1 | 71 to 72
CC(=O)c1cccc2ccc(CC(=O)O)cc12 | 131 to 132
Cc1nc2ccccn2c(=O)c1CCN1CCC2C(C1)c1ccccc1N2Cc1ccccc1 (stereo not drawn) | 145
Cn1c(CN2CCOCC2)nc([N+](=O)[O-])c1C#N | 112 to 115
CN(CCOc1ccccc1C(N)=O)CCc1ccc([N+](=O)[O-])cc1 | 116 to 118
CC(=O)NC[C@H]1CN(c2ccc(N=C=S)c(F)c2)C(=O)O1 | 172 to 176
COc1ccc(SCCSc2ccc(OC)cc2)cc1 | 108 to 110
Nc1ccc(OC(F)(F)F)cc1 | 63.5
O=C1CC(=CN2CCOCC2)Oc2c(O)cccc21 | 202
COc1ccc(C(=O)Nc2ccc3ccc(OC(C)C)nc3n2)cc1 | 78

Structure (SMILES) | melting point [°C]
Cc1cccc2c(-c3ccccc3)onc12 | 73 to 75
CCCCn1ncc2cc(/C=C/c3ccc(O)cc3)ccc2c1=O | 225 to 230
C=Cn1c(=O)c(C#N)c(N2CCN(C(=O)c3cccs3)CC2)c2cccnc21 | 228
Cc1ccc(Cc2cnc(NCCCNc3ccc(Cl)cn3)[nH]c2=O)cn1 | 173 to 175
C[C@@H](Nc1ncnc2cc(OCCO)c([N+](=O)[O-])cc12)c1ccccc1 | 187 to 192
CC1(OC(=O)C=CC2C(C(=O)OC(C#N)c3cccc(Oc4ccccc4)c3)C2(C)C)CCC1 (stereo not drawn) | 78
CC(=O)Nc1cc(Br)sc1Br | 114 to 116
Cc1ccc(Cl)cc1-n1c(CF)nc2ccc([N+](=O)[O-])cc2c1=O | 191 to 192
O=C1Oc2ccccc2Oc2ccccc21 | 62 to 66
CCCc1c2nc(C(=O)OC)cc(Br)c2cc2c(=O)cc(C(=O)OC)oc12 | 179 to 180
CCc1cc2c(=O)n3cc(C(N)=O)ccc3nc2s1 | 278 to 280
CCCc1nn(-c2ccc(C(F)(F)F)cn2)cc1COc1ccc(CCC(=O)O)c(C)c1 | 129 to 130
CCOC(=O)C(CC(=O)c1cccc(C(F)(F)F)c1)(NC(C)=O)C(=O)OCC | 91 to 92
CCc1ccc2c(c1)OC1(O)c3ccccc3C(=O)C21O (stereo not drawn) | 168 to 169
CC(=O)NC1CCc2[nH]c3c(F)cc(F)cc3c2C1 (stereo not drawn) | 179 to 183
Cc1nc[nH]c1CSCCN=C(NC#N)NCCCCCCCN | 84 to 87
CC(COc1c(-c2ccccc2)c(=O)[nH]c2cc(Cl)ccc12)=NO | 196 to 198
Cc1oc(-c2ccccc2)nc1COc1ccc(CCC2SC(=O)NC2=O)cc1 (stereo not drawn) | 146 to 147
CCC(=O)ON=C(c1ccccc1)c1cc(C(C)(C)C)c(O)c(C(C)(C)C)c1 | 132 to 134
C=CCOC(=O)CC(=O)CCN1C(=O)c2ccccc2C1=O | 53 to 55
CCOC1=CC(=O)CC(c2ccccc2O)C1 (stereo not drawn) | 194 to 197
Cn1c2ccc(F)cc2c(=O)n2nc(C(N)=O)cc12 | > 350
O=C1c2c(Br)cccc2-n2cnc(-c3noc(CCl)n3)c2[C@@H]2CCN12 | 210 to 211
CCOC(=O)c1ccc(/C=C(\C)c2ccc3c(c2)CCCCO3)cc1 | 60 to 61
COc1ccc(CN(C)CCCSc2ccc(NC(=O)c3cccc4c(=O)c5ccccc5[nH]c34)cc2)cc1OC | 140

Structure (SMILES) | melting point [°C]
COC(=O)[C@H](C)NC(=O)CCCN(C(=O)c1ccc(Cl)cc1)c1c(C)cccc1C | 91 to 92
COC(=O)Cn1cnc(N2CCc3ccccc3CC2)c(C#N)c1=O | 156 to 160
O=C1C(=Cc2ccncc2)COc2ccccc21 | 132
O=C1c2cccc3cc4ccccc4c(c23)C(=O)N1CCCNCCNCCCN1C(=O)c2cccc3cc4ccccc4c(c23)C1=O | 180
Cc1c(CC(C)C)sc2nc(C(Cl)(Cl)Cl)[nH]c(=O)c12 | 192 to 194
Nc1ccc(Oc2ccc3c(c2)OCC(=O)N3)cc1 | 201 to 202
CS(=O)(=O)c1ccc(C(CC2CCC(=O)C2)C(=O)O)cc1Cl (stereo not drawn) | 164 to 167
O=C(O)CNC(=O)C(NC(=O)c1ccccc1)SC(=O)c1ccccc1 (stereo not drawn) | 162 to 164
O=C(O)c1ccc2cnn(C3CCCC3)c2c1 | 172 to 175
CCC(CC)n1nnc2c(Nc3c(C)cc(C)cc3C)nc(C)cc21 | 140 to 142
C=CCC(N)c1cccc(OC)c1 (stereo not drawn) | 30
Clc1ccc(-c2ccc(Cl)nc2)cc1 | 113 to 115
COc1cc(C(=O)O)ccc1Cn1ccc2ccc(CC(=O)NCC3CCCC3)cc21 | 188 to 189
CCCCCC(=O)CCC1CCC(CCCCCCCC(=O)O)O1 (stereo not drawn) | 26 to 28
O=[N+]([O-])c1ccc(S(=O)(=O)Nc2ccc(O)cc2)cc1 | 197 to 198
O=C(O)COc1c(-c2cccc(Cl)c2)cc(C(=O)NCCCCc2ccccc2)cc1-c1cccc(C(F)(F)F)c1 | 187 to 190
CCn1cc(C(=O)O)c(=O)c2cc(F)c(N3CCN(C)C(c4ccc(C)s4)C3)cc21 (stereo not drawn) | 224
COC(=O)c1ccc2c(c1)OC(C)(C)C(=O)N2C(C)C | 62 to 63
COc1ccc(CSc2cccc(C(=O)Nc3ccc(C#N)cc3)c2)cc1 | 167 to 169
C[C@]12CC[C@]3(C)C(O)CC[C@H]3[C@@H]1CCC1=C2CC=C(O)C1 (stereo partly drawn) | 86 to 90
CCCOC(=O)c1cc(-n2c(OC)nc(C(F)(F)F)cc2=O)c(F)cc1Cl | 55 to 57
CC(C)(C)COC(=O)Oc1cc(Cl)nnc1-c1ccc(Br)cc1 | 114 to 116
CC(C)(C)n1nc(Cc2ccccc2)c(C#N)c1N | 106 to 110
